Target: T1, catalytic domain of MMP-13 enzyme (Homo sapiens, UniProt P45452)
T1 construct: stock solution of catalytic domain of MMP-13 enzyme; purchased Invitek (Berlin) 30100812
Test: Assay for determining MMP-13 inhibition (fluorescent substrate)
Format: biochemical
Conditions: compounds named as lower than 100 nM
Procedure: Assay for Determining MMP-13 Inhibition
The typical assay for MMP-13 activity is carried out in assay buffer comprised of 50 mM Tris, pH 7.5, 150 mM NaCl, 5 mM CaCl2 and 0.05% Brij-35. Different concentrations of tested compounds are prepared in assay buffer in 50 μL aliquots. 10 μL of a 50 nM stock solution of catalytic domain of MMP-13 enzyme (produced by Alantos or commercially available from Invitek (Berlin), Cat.# 30100812) is added to the compound solution. The mixture of enzyme and compound in assay buffer is thoroughly mixed and incubated for 10 min at room temperature. Upon the completion of incubation, the assay is started by addition of 40 μL of a 12.5 μM stock solution of MMP-13 fluorescent substrate (Calbiochem, Cat. No. 444235). The time-dependent increase in fluorescence is measured at the 320 nm excitation and 390 nm emission by automatic plate multireader. The IC50 values are calculated from the initial reaction rates.

IC50 [nM] | Structure (SMILES)
< 100 | O=C1COc2ccc(CNC(=O)c3cnc4ccccc4n3)cc2N1 [3/137]
< 100 | O=C1COc2ccc(CNC(=O)C3NC(=O)c4ccccc4N3)cc2N1 (centres unmarked) [Example 1/4]
